Results as given in ChEMBL document CHEMBL3044597, “Docking-based 3D-QSAR modeling of the inhibitors of IMP metallo--lactamase” (Med Chem Res, 2013).

Target: Beta-lactamase (Pseudomonas aeruginosa, UniProt Q79MP6)
Test: Inhibition of Pseudomonas aeruginosa IMP1 metallo-beta-lactamase

Beta-lactamase, sequence (Q79MP6 whole entry): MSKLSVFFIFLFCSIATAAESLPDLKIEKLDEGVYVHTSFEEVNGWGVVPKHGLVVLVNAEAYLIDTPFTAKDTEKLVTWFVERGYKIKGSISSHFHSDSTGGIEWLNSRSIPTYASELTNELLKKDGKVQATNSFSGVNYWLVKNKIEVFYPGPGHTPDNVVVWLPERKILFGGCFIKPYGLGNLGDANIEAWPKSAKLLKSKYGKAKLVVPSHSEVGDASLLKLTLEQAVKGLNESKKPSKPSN

CCCCCC(=O)N[C@H](C)C(=O)S[C@@H](C)Cc1ccc(-c2ccccc2)cc1
IC50: 13 µM

C[C@@H](Cc1ccc(-c2ccccc2)cc1)SC(=O)[C@@H](C)NC(=O)c1ccccc1
IC50: 3.6 µM

COc1ccc(C(=O)N[C@H](C)C(=O)S[C@@H](C)Cc2ccc(-c3ccccc3)cc2)cc1
IC50: 29 µM

C[C@@H](Cc1ccc(-c2ccccc2)cc1)SC(=O)[C@@H](C)NC(=O)CNC(=O)c1ccccc1
IC50: 50 µM

CCCC(=O)N[C@H](C)C(=O)S[C@@H](C)Cc1ccc(-c2ccccc2)cc1
IC50: 9.29 µM

C[C@@H](Cc1ccc(-c2ccccc2)cc1)SC(=O)[C@@H](C)NC(=O)CCC(=O)c1ccccc1
IC50: 0.25 µM

O=C(O)[C@@H](S)Cc1ccc(-c2ccccc2)cc1
IC50: 1.2 µM

C/C=C/C(=O)N[C@H](C)C(=O)S[C@@H](C)Cc1ccc(-c2ccccc2)cc1
IC50: 33 µM

C[C@@H](Cc1ccc(-c2ccccc2)cc1)SC(=O)[C@@H](C)NC(=O)Cc1ccccc1
IC50: 5.79 µM

C[C@@H](Cc1ccc(-c2ccccc2)cc1)SC(=O)[C@@H](C)NC(=O)/C=C/c1ccccc1
IC50: 11 µM

O=C(O)[C@@H](S)Cc1ccc2oc3ccccc3c2c1
IC50: 0.25 µM

CC(=O)S[C@H](Cc1ccc(-c2ccccc2)cc1)C(=O)O
IC50: 0.0839 µM

CC(=O)N[C@H](C)C(=O)S[C@@H](C)Cc1ccc2oc3ccccc3c2c1
IC50: 2 µM

O=C(S[C@@H](Cc1ccccc1)C(=O)O)c1ccccc1
IC50: 2.5 µM

C[C@@H](Cc1ccc(-c2ccccc2)cc1)SC(=O)[C@@H](C)NC(=O)c1ccc2ccccc2c1
IC50: 18 µM

C=CCOC(=O)N[C@H](C)C(=O)S[C@@H](C)Cc1ccc(-c2ccccc2)cc1
IC50: 4.4 µM

CC(C)CC(=O)N[C@H](C)C(=O)S[C@@H](C)Cc1ccc(-c2ccccc2)cc1
IC50: 5.3 µM

O=C(O)[C@@H](Cc1ccccc1)[C@H](Cc1ccc2c(c1)OCO2)C(=O)O
IC50: 0.0037 µM

O=C(O)[C@H](S)Cc1ccc(-c2ccccc2)cc1
IC50: 0.057 µM

C[C@@H](Cc1ccc2oc3ccccc3c2c1)SC(=O)[C@@H](C)NC(=O)c1ccccc1
IC50: 1.5 µM

O=C(O)[C@H](S)Cc1ccc2oc3ccccc3c2c1
IC50: 0.023 µM

C[C@@H](Cc1ccc(-c2ccccc2)cc1)SC(=O)[C@@H](C)NC(=O)Cc1ccc(O)cc1
IC50: 3.1 µM

C[C@@H](Cc1ccc(-c2ccccc2)cc1)SC(=O)[C@@H](C)NC(=O)CCc1ccccc1
IC50: 15 µM

O=C(O)[C@H](Cc1ccccc1)[C@@H](Cc1ccccc1)C(=O)O [(2R,3R)-2,3-DIBENZYLSUCCINIC ACID]
IC50: 0.21 µM

C[C@@H](Cc1ccc(-c2ccccc2)cc1)SC(=O)[C@@H](C)NC(=O)CCCC(=O)O
IC50: 91 µM

C=CCOC(=O)N[C@H](C)C(=O)S[C@@H](C)Cc1ccc2oc3ccccc3c2c1
IC50: 2.9 µM

O=C(S[C@H](Cc1ccccc1)C(=O)O)c1ccccc1
IC50: 0.064 µM

O=C(O)[C@@H](Cc1ccc2c(c1)OCO2)[C@H](Cc1ccc2c(c1)OCO2)C(=O)O
IC50: 0.00899 µM

CC(C)C(=O)N[C@H](C)C(=O)S[C@@H](C)Cc1ccc(-c2ccccc2)cc1
IC50: 9.71 µM

C[C@@H](c1ccccc1)[C@H](C(=O)O)[C@H](Cc1ccccc1)C(=O)O
IC50: 0.013 µM

COc1ccc(CC(=O)N[C@H](C)C(=O)S[C@@H](C)Cc2ccc(-c3ccccc3)cc2)cc1
IC50: 12 µM

O=C(O)[C@@H](Cc1ccccc1)[C@H](Cc1ccccc1)C(=O)O
IC50: 0.0027 µM

C[C@@H](Cc1ccc(-c2ccccc2)cc1)SC(=O)[C@@H](C)NC(=O)c1cccc(N(C)C)c1
IC50: 15 µM

CCC(=O)N[C@H](C)C(=O)S[C@@H](C)Cc1ccc(-c2ccccc2)cc1
IC50: 9.51 µM

COc1cccc(C(=O)N[C@H](C)C(=O)S[C@@H](C)Cc2ccc(-c3ccccc3)cc2)c1
IC50: 38 µM

C[C@@H](Cc1ccc(-c2ccccc2)cc1)SC(=O)[C@@H](C)NC(=O)Cc1ccccc1Cc1ccccc1
IC50: 24 µM

O=C(S[C@H](Cc1ccc2oc3ccccc3c2c1)C(=O)O)c1ccccc1
IC50: 0.0013 µM

COc1cc(OC)c(C(=O)N[C@H](C)C(=O)S[C@@H](C)Cc2ccc(-c3ccccc3)cc2)c(OC)c1
IC50: 46 µM

C[C@@H](Cc1ccc(-c2ccccc2)cc1)SC(=O)[C@@H](C)NC(=O)CSCC(=O)O
IC50: 13 µM

CC(=O)S[C@H](Cc1ccccc1)C(=O)O
IC50: 12 µM

O=C(O)[C@H](S)Cc1ccccc1
IC50: 0.0859 µM

C[C@@H](Cc1ccc(-c2ccccc2)cc1)SC(=O)[C@@H](C)NC(=O)COc1ccccc1
IC50: 1 µM

CCCCC(=O)N[C@H](C)C(=O)S[C@@H](C)Cc1ccc(-c2ccccc2)cc1
IC50: 4.8 µM

C[C@@H](Cc1ccc(-c2ccccc2)cc1)SC(=O)[C@@H](C)NC(=O)Cc1cccnc1
IC50: 32 µM

C[C@@H](Cc1ccc(-c2ccccc2)cc1)SC(=O)[C@@H](C)NC(=O)Cc1cccc2ccccc12
IC50: 12 µM

CC(=O)N[C@H](C)C(=O)S[C@@H](C)Cc1ccc(-c2ccccc2)cc1
IC50: 18 µM

C[C@@H](Cc1ccccc1)SC(=O)[C@@H](C)NC(=O)c1ccccc1
IC50: 20 µM

C[C@@H](Cc1ccc(-c2ccccc2)cc1)SC(=O)[C@@H](C)NC(=O)Cc1ccc(N(C)C)cc1
IC50: 55 µM
